# In patent US20240124409A1, “GUAIANOLIDE SESQUITERPENE LACTONE DERIVATIVES AND PHARMACEUTICAL USE THEREOF” (NANJING UNIVERSITY OF CHINESE MEDICINE, priority 2021, published 2024):
# Columns and labels:
# Type in all cases: in vivo, C57BL/6 mice
# [1] = test system: chronic kidney injury models by the unilateral ureteral obstruction method; test: Mouse chronic kidney injury model (unilateral ureteral obstruction); conditions: for BUN (urea level in serum) / Scr (creatinine level in serum): 14 days; for BUN (urea level in serum): in mmol/L (unit assumed); for Scr (creatinine level in serum): in µmol/L (unit assumed); for Col1a1 mRNA expression / Havcr1 mRNA expression / Il1 mRNA expression / Il6 mRNA expression / Ngal mRNA expression / Tgfb1 mRNA expression / Tnf mRNA expression / α-Sma mRNA expression: kidney
# Source text: Chronic kidney injury: The mice were randomly divided into 7 groups, one of which was randomly selected as the normal group, and the other 6 groups were the model group, the parent drug 1 (0.4 and 4 μmol/kg), the hydrochloride 22 (4 μmol/kg), and the fumarate 23 (0.4 and 4 μmol/kg) groups, respectively, with 6 mice in each group. In addition to mice in the normal group that had sham operations (i.e., there was no other operations, but only the left ureter was exposed), the other mice were established chronic kidney injury models by the unilateral ureteral obstruction method. Specifically, the abdominal skin was sterilized with iodophor and alcohol in sequence, and the abdominal skin was cut and separated layer by layer. After fully exposing and separating the left ureter, double obstruction was performed at the proximal bladder end of the ureter with a digestible suture line, followed by suture. On the first day of model establishment, the parent drug 1 (0.4 and 4 μmol/kg), the hydrochloride 22 (4 μmol/kg) and the fumarate 23 (0.4 and 4 μmol/kg) were administered intragastrically for 14 consecutive days. The mice in the normal group and model group were administered intragastrically the same volume of the solvent 0.5% CMC-Na.
# 1 h after the last administration, blood was collected from the venous plexus of fundus oculi, stood at room temperature for 2 h, and centrifuged at 3000 rpm for 20 min. The serum was aspirated, aliquoted, and frozen at −70° C. for subsequent use. After blood collection, the mice were sacrificed by cervical dislocation, and the abdominal cavity was opened. The kidneys were taken out, rinsed twice with pre-cooled PBS after the perirenal fats and capsules were peeled off, and then fixed with 4% paraformaldehyde for 24-48 h, embedded in paraffin and stained with HE. The remaining tissues were frozen at −70° C. for subsequent use.
# μL serum was taken from each sample for the detection of creatinine and urea levels. Samples were added in accordance with the instructions of the kit strictly. After incubation at 37° C., the absorbance value was measured in a microplate reader, and the content levels of detection indicators in each group were calculated according to the standard curve.
# The extraction of total RNA from animal tissues, cDNA synthesis and PCR amplification are as in above examples.
# [2] = test system: mouse acute lung injury model; test: Mouse acute lung injury model (LPS), ELISA; conditions: title: serum (text b290: lung tissues)
# Procedure: In addition to the normal group injected intragastrically with PBS, other mice were injected intraperitoneally with LPS (7.5 mg/kg) to establish acute lung injury models. Three days before model establishment, the parent drug 1 (0.4 and 4 μmol/kg), the hydrochloride 22 (0.4 and 4 μmol/kg), the fumarate 23 (0.4 and 4 μmol/kg) and the positive drug Dex (12 μmol/kg) were administered intragastrically in advance, and LPS (7.5 mg/kg) was injected intraperitoneally half an hour after administration on the third day.
# abdominal cavity was opened. The lungs were taken out, and rinsed twice with pre-cooled PBS. […] The remaining tissues were frozen at −70° C. for subsequent use.
# 20 mg of lung tissues were accurately weighed, rinsed with pre-cooled PBS solution, cut into small pieces by ophthalmic surgical scissors, and put into a glass homogenizer, into which was added 180 μL PBS (containing 1 mM PMSF). The mixture was homogenized at 60 HZ for 180 s, and centrifuged at 3000 rpm/min at 4° C. for 20 min. 1 μL supernatant was taken, the protein concentration of which was measured with Nanodrop and leveled, and could be used for subsequent experiments.
# [3] = test system: DSS-induced UC model mice; test: Anti-ulcerative colitis activity, DSS mouse colitis model; set-up: key to DAI score: DAI = (weight loss + stool + occult blood scores)/3; conditions: for MPO activity in colon tissue / Colon length: 10 days
# Procedure: Except for the normal group, the other mice were free to drink 2.5% DSS for 7 days, which was then replaced to distilled water to be drunk freely for 3 days to establish the UC model. […] The mice in the normal group and model groups were administered intragastrically the same volume of the solvent 0.5% CMC-Na.
# The general living conditions of the mice in each group were observed and the disease activity indexs (DAI) were evaluated. The daily specific observation indicator was weight, stool property and occult blood state of mice, and then the scores of the weight loss, stool property and occult blood state were added to determine the average value, so as to obtain the DAI score of each mouse, that is, DAI=(weight loss score+stool property score+occult blood state score)/3, to evaluate the disease activity.
# Test method of occult blood: Using o-toluidine method, a little feces was picked up into a 24-well culture plate with a cotton swab, into which was first added 200 μL of the solution of o-toluidine glacial acetic acid, and then quickly added 200 μL of 3% hydrogen peroxide solution. Those turned blue-brown within 2 minutes were positive.
# 1 h after the last administration, blood was collected from the venous plexus of fundus oculi, stood at room temperature for 2 h, and centrifuged at 3000 rpm for 20 min. The serum was aspirated, aliquoted, and frozen at −70° C. for subsequent use. After the blood collection, the mice were sacrificed by cervical dislocation, and the abdominal cavity was opened. The colon tissues were removed 1 cm away from the anus, rinsed twice with pre-cooled PBS, and frozen at −70° C. for subsequent use.
# The shortening of colon length is one of the main characteristics of DSS-induced UC model mice. After dissecting the abdominal cavity of the UC mice, the colon and distal ileum tissues were dissociated. The external morphological changes of the colon tissues were observed, the colon length was measured and recorded, and the photos were taken.
# 40 mg of colon tissues of the mice in each group was taken, into which was added 400 μL of pre-cooled normal saline to prepare tissue homogenates. After centrifugation at 4° C. and 1200 rpm for 5 min, the supernatants were collected. According to the method described in the kit instructions, various reagents were added sequentially, and finally the absorbance value of each well was determined at the wavelength of 460 nm of the microplate reader to calculate the MPO activity.
# MPO activity (U/g wet weight)=(OD value of test tube−OD value of control tube)/11.3×sampling amount(g)
smiles,measurement,setting,value
C=C1C(=O)O[C@@H]2[C@@H]3[C@]4(CC[C@@]3(C)O)C[C@]4(C)CC[C@@H]12 [Compound 1],BUN (urea level in serum),[1]; 0.4 μmol/kg i.g.,18.41
same,Scr (creatinine level in serum),[1]; 0.4 μmol/kg i.g.,176.35
same,BUN (urea level in serum),[1]; 4 μmol/kg i.g.,11.01
same,Scr (creatinine level in serum),[1]; 4 μmol/kg i.g.,104.65
same,Col1a1 mRNA expression,[1]; 0.4 μmol/kg,16.09
same,Havcr1 mRNA expression,[1]; 0.4 μmol/kg,12.56
same,Il1 mRNA expression,[1]; 0.4 μmol/kg,6.05
same,Il6 mRNA expression,[1]; 0.4 μmol/kg,16.52
same,Ngal mRNA expression,[1]; 0.4 μmol/kg,37.82
same,Tgfb1 mRNA expression,[1]; 0.4 μmol/kg,2.04
same,Tnf mRNA expression,[1]; 0.4 μmol/kg,6.41
same,α-Sma mRNA expression,[1]; 0.4 μmol/kg,2.32
same,Col1a1 mRNA expression,[1]; 4 μmol/kg,9.45
same,Havcr1 mRNA expression,[1]; 4 μmol/kg,8.54
same,Il1 mRNA expression,[1]; 4 μmol/kg,3.99
same,Il6 mRNA expression,[1]; 4 μmol/kg,6.50
same,Ngal mRNA expression,[1]; 4 μmol/kg,21.66
same,Tgfb1 mRNA expression,[1]; 4 μmol/kg,1.55
same,Tnf mRNA expression,[1]; 4 μmol/kg,6.59
same,α-Sma mRNA expression,[1]; 4 μmol/kg,1.54
same,IL-1β,[2]; 0.4 μmol/kg,1824.88 ± 32.73 pg/mL
same,IL-6,[2]; 0.4 μmol/kg,2760.57 ± 288.02 pg/mL
same,IL-1β,[2]; 4 μmol/kg,945.66 ± 36.71 pg/mL
same,IL-6,[2]; 4 μmol/kg,1314.91 ± 231.08 pg/mL
same,MPO activity in colon tissue,[3]; 20 nmol/kg i.g.,1.40 ± 0.31 U/g tissue
same,Colon length,[3]; 20 nmol/kg/d i.g.,6.15 ± 0.35 cm
same,MPO activity in colon tissue,[3]; 40 nmol/kg i.g.,1.08 ± 0.12 U/g tissue
same,Colon length,[3]; 40 nmol/kg/d i.g.,6.78 ± 0.28 cm
same,DAI score,"[3]; day 1, 20 nmol/kg i.g.",0.00 ± 0.00
same,DAI score,"[3]; day 1, 40 nmol/kg i.g.",0.00 ± 0.00
same,DAI score,"[3]; day 2, 20 nmol/kg i.g.",0.33 ± 0.14
same,DAI score,"[3]; day 2, 40 nmol/kg i.g.",0.33 ± 0.19
same,DAI score,"[3]; day 3, 20 nmol/kg i.g.",0.75 ± 0.28
same,DAI score,"[3]; day 3, 40 nmol/kg i.g.",0.58 ± 0.21
same,DAI score,"[3]; day 4, 20 nmol/kg i.g.",1.08 ± 0.37
same,DAI score,"[3]; day 4, 40 nmol/kg i.g.",1.00 ± 0.19
same,DAI score,"[3]; day 5, 20 nmol/kg i.g.",1.75 ± 0.50
same,DAI score,"[3]; day 5, 40 nmol/kg i.g.",1.25 ± 0.34
same,DAI score,"[3]; day 6, 20 nmol/kg i.g.",2.25 ± 0.44
same,DAI score,"[3]; day 6, 40 nmol/kg i.g.",1.67 ± 0.36
same,DAI score,"[3]; day 7, 20 nmol/kg i.g.",2.50 ± 0.17
same,DAI score,"[3]; day 7, 40 nmol/kg i.g.",1.83 ± 0.44
same,DAI score,"[3]; day 8, 20 nmol/kg i.g.",2.75 ± 0.39
same,DAI score,"[3]; day 8, 40 nmol/kg i.g.",1.92 ± 0.50
same,DAI score,"[3]; day 9, 20 nmol/kg i.g.",1.83 ± 0.17
same,DAI score,"[3]; day 9, 40 nmol/kg i.g.",1.17 ± 0.32
same,DAI score,"[3]; day 10, 20 nmol/kg i.g.",1.25 ± 0.16
same,DAI score,"[3]; day 10, 40 nmol/kg i.g.",0.50 ± 0.22
CN(C)C[C@@H]1C(=O)O[C@H]2[C@H]1CC[C@@]1(C)C[C@]13CC[C@@](C)(O)[C@H]23 [Compound 23],BUN (urea level in serum),[1]; 0.4 μmol/kg i.g.,17.63
same,Scr (creatinine level in serum),[1]; 0.4 μmol/kg i.g.,157.79
same,BUN (urea level in serum),[1]; 4 μmol/kg i.g.,9.45
same,Scr (creatinine level in serum),[1]; 4 μmol/kg i.g.,79.87
same,Col1a1 mRNA expression,[1]; 0.4 μmol/kg,11.79
same,Havcr1 mRNA expression,[1]; 0.4 μmol/kg,11.90
same,Il1 mRNA expression,[1]; 0.4 μmol/kg,5.32
same,Il6 mRNA expression,[1]; 0.4 μmol/kg,14.31
same,Ngal mRNA expression,[1]; 0.4 μmol/kg,35.77
same,Tgfb1 mRNA expression,[1]; 0.4 μmol/kg,1.76
same,Tnf mRNA expression,[1]; 0.4 μmol/kg,7.10
same,α-Sma mRNA expression,[1]; 0.4 μmol/kg,2.02
same,Col1a1 mRNA expression,[1]; 4 μmol/kg,8.27
same,Havcr1 mRNA expression,[1]; 4 μmol/kg,7.25
same,Il1 mRNA expression,[1]; 4 μmol/kg,3.55
same,Il6 mRNA expression,[1]; 4 μmol/kg,5.61
same,Ngal mRNA expression,[1]; 4 μmol/kg,19.42
same,Tgfb1 mRNA expression,[1]; 4 μmol/kg,1.53
same,Tnf mRNA expression,[1]; 4 μmol/kg,7.53
same,α-Sma mRNA expression,[1]; 4 μmol/kg,1.39
same,IL-1β,[2]; 0.4 μmol/kg,1623.55 ± 32.64 pg/mL
same,IL-6,[2]; 0.4 μmol/kg,2585.26 ± 273.50 pg/mL
same,IL-1β,[2]; 4 μmol/kg,888.28 ± 35.20 pg/mL
same,IL-6,[2]; 4 μmol/kg,1288.32 ± 123.80 pg/mL
same,MPO activity in colon tissue,[3]; 20 nmol/kg i.g.,1.29 ± 0.11 U/g tissue
same,Colon length,[3]; 20 nmol/kg/d i.g.,6.51 ± 0.25 cm
same,MPO activity in colon tissue,[3]; 40 nmol/kg i.g.,0.99 ± 0.18 U/g tissue
same,Colon length,[3]; 40 nmol/kg/d i.g.,7.26 ± 0.26 cm
same,DAI score,"[3]; day 1, 20 nmol/kg i.g.",0.00 ± 0.00
same,DAI score,"[3]; day 1, 40 nmol/kg i.g.",0.00 ± 0.00
same,DAI score,"[3]; day 2, 20 nmol/kg i.g.",0.27 ± 0.09
same,DAI score,"[3]; day 2, 40 nmol/kg i.g.",0.16 ± 0.10
same,DAI score,"[3]; day 3, 20 nmol/kg i.g.",0.63 ± 0.14
same,DAI score,"[3]; day 3, 40 nmol/kg i.g.",0.54 ± 0.11
same,DAI score,"[3]; day 4, 20 nmol/kg i.g.",0.96 ± 0.16
same,DAI score,"[3]; day 4, 40 nmol/kg i.g.",1.20 ± 0.14
same,DAI score,"[3]; day 5, 20 nmol/kg i.g.",1.02 ± 0.23
same,DAI score,"[3]; day 5, 40 nmol/kg i.g.",0.61 ± 0.23
same,DAI score,"[3]; day 6, 20 nmol/kg i.g.",1.56 ± 0.41
same,DAI score,"[3]; day 6, 40 nmol/kg i.g.",1.07 ± 0.25
same,DAI score,"[3]; day 7, 20 nmol/kg i.g.",2.28 ± 0.23
same,DAI score,"[3]; day 7, 40 nmol/kg i.g.",1.38 ± 0.25
same,DAI score,"[3]; day 8, 20 nmol/kg i.g.",2.46 ± 0.26
same,DAI score,"[3]; day 8, 40 nmol/kg i.g.",1.57 ± 0.28
same,DAI score,"[3]; day 9, 20 nmol/kg i.g.",1.31 ± 0.18
same,DAI score,"[3]; day 9, 40 nmol/kg i.g.",1.05 ± 0.25
same,DAI score,"[3]; day 10, 20 nmol/kg i.g.",0.80 ± 0.16
same,DAI score,"[3]; day 10, 40 nmol/kg i.g.",0.35 ± 0.16
